The EC50 is the concentration at which the effect is half-maximal.

Data set [1] can be described thus: Antitumor activity against human melanoma cells harboring patient assessed as increase in survival of patient at 1000 mg/kg, iv administered 3 times a week. The conditions noted are these: Melanoma cell. In kind it is functional.
Data set [2] concerns HCT-116. Put plainly: Growth inhibition of human HCT116 cells expressing wild-type B-Raf and K-Ras2 G13D mutant after 72 hrs by WST-1 assay. The conditions noted are these: HCT-116, 72 h. In kind it is functional, cell-based. (Tetrazolium dyes change colour on reduction, which living cells bring about.)
The test system of data set [3] is SK-MEL-2. Put plainly: Growth inhibition of human SK-MEL-2 cells expressing wild-type B-Raf and N-Ras2 Q61R mutant after 72 hrs by WST-1 assay. In kind it is functional, cell-based. To be noted: SK-MEL-2, 72 h.
Data set [4] is described as follows: Antitumor activity against human melanoma cells assessed as increase in survival of patient at […], po administered BID. In kind it is functional. To be noted: Melanoma cell.
The nature of data set [5]: Toxicity in po dosed cancer patient bearing B-Raf V600E mutation administered BID. The format is organism-based. To be noted: human, in vivo.

Take `CC(C)(C)c1nc(-c2cccc(NS(=O)(=O)c3c(F)cccc3F)c2F)c(-c2ccnc(N)n2)s1` [DABRAFENIB]: the survival at 1000 mg/kg in data set [1] turned out to be 64%.

For `CN(C)CCOc1ccc(-c2nc(-c3ccncc3)c(-c3ccc4c(c3)CC/C4=N\O)[nH]2)cc1` [SB590885], the concentration for a half-maximal effect (EC50) in data set [2] and in data set [3] was 1.1 µM each time.

On to `CCCS(=O)(=O)Nc1ccc(F)c(C(=O)c2c[nH]c3ncc(-c4ccc(Cl)cc4)cc23)c1F` [VEMURAFENIB], for which the survival in data set [4] was 84%. The same compound showed an MTD in data set [5] of 960 mg.

The record behind these values is ChEMBL document CHEMBL1944549, “Small molecule inhibitors of BRAF in clinical trials” (Bioorg Med Chem Lett, 2012).
